Calls of active or inactive are those of the source. The calls are words filed in the database; no cut-off is given here.
Assays:
[1] = tested on: LNCaP; assay: Cytotoxicity against human LNCAP cells assessed as reduction in cell viability incubated for 48 hrs by MTT assay; format: functional, cell-based
[2] = tested on: NHDF; assay: Cytotoxicity against human HDF cells assessed as reduction in cell viability incubated for 48 hrs by MTT assay; format: cell-based
[3] = tested on: PC-3; assay: Cytotoxicity against human PC3 cells assessed as reduction in cell viability incubated for 48 hrs by MTT assay; format: functional, cell-based; settings: PC-3, 48 h
[4] = tested on: A-375; assay: Cytotoxicity against human A375 cells assessed as reduction in cell viability incubated for 48 hrs by MTT assay; format: functional, cell-based; settings: A-375, 48 h
[5] = tested on: PC-3; assay: Induction of cell death in human PC3 cells assessed as morphological changes by DAPI staining based inverted fluorescence microscopy; format: functional
[6] = tested on: LNCaP; assay: Induction of cell death in human LNCAP cells assessed as morphological changes by DAPI staining based inverted fluorescence microscopy; format: functional
[7] = tested on: LNCaP; assay: Inhibition of epithelial-mesenchymal transition in human LNCAP cells assessed as increase in E-cadherin mRNA expression by qRT-PCR analysis; format: functional, cell-based
[8] = tested on: LNCaP; assay: Induction of cell death in human LNCAP cells assessed as chromatin fragmentation by DAPI staining based inverted fluorescence microscopy; format: functional
[9] = tested on: A-375; assay: Induction of cell death in human A375 cells assessed as morphological changes by DAPI staining based inverted fluorescence microscopy; format: functional
[10] = tested on: PC-3; assay: Induction of cell death in human PC3 cells assessed as chromatin fragmentation by DAPI staining based inverted fluorescence microscopy; format: functional
[11] = tested on: LNCaP; assay: Inhibition of epithelial-mesenchymal transition in human LNCAP cells assessed as decrease in vimentin mRNA expression level by qRT-PCR analysis; format: functional, cell-based
[12] = tested on: LNCaP; assay: Induction of apoptosis in human LNCAP cells assessed as upregulation of Bax mRNA expression by qRT-PCR analysis; format: functional, cell-based
[13] = tested on: LNCaP; assay: Induction of apoptosis in human LNCAP cells assessed as downregulation of Bcl2 mRNA expression by qRT-PCR analysis; format: functional, cell-based
[14] = tested on: LNCaP; assay: Inhibition of cell migration at human LNCAP cells incubated for 24 hrs by phase contrast microscopy based wound healing assay; format: functional
[15] = tested on: A-375; assay: Induction of cell death in human A375 cells assessed as chromatin fragmentation by DAPI staining based inverted fluorescence microscopy; format: functional

Compound | IC50 [1] | IC50 [2] | IC50 [3] | IC50 [4] | also measured
CNC1=C([N+](=O)[O-])C(c2ccc(C(F)(F)F)cc2)Nc2ncnn21 (configuration not stated) | > 100 µM | > 100 µM | > 100 µM | 63.4 µM | 
CNC1=C([N+](=O)[O-])C(c2ccc(Br)cc2)Nc2ncnn21 (configuration not stated) | > 100 µM | > 100 µM | > 100 µM | > 100 µM | 
CNC1=C([N+](=O)[O-])C(c2cccc(F)c2)Nc2ncnn21 (configuration not stated) | > 100 µM | > 100 µM | 55.6 µM | 61.3 µM | 
CNc1c([N+](=O)[O-])c(-c2ccncc2)nc2ncnn12 | 31.7 µM | > 100 µM | > 100 µM | > 100 µM | 
COc1cc([C@@H]2c3cc4c(cc3[C@@H](O[C@@H]3O[C@@H]5CO[C@@H](C)O[C@H]5[C@H](O)[C@H]3O)[C@H]3COC(=O)[C@H]23)OCO4)cc(OC)c1O [ETOPOSIDE] | 31.2 µM | > 100 µM | 30 µM | 24.5 µM | 
CNC1=C([N+](=O)[O-])C(c2ccc(Cl)cc2)Nc2ncnn21 (configuration not stated) | > 100 µM | > 100 µM | > 100 µM | > 100 µM | 
CNC1=C([N+](=O)[O-])C(c2ccccc2)Nc2ncnn21 (configuration not stated) | > 100 µM | > 100 µM | 45 µM | > 100 µM | 
CNC1=C([N+](=O)[O-])C(c2ccc([N+](=O)[O-])cc2)Nc2ncnn21 (configuration not stated) | 28.6 µM | > 100 µM | 65 µM | 31.7 µM | Activity [5]: Active; Activity [6]: Active; inhibition [7]: Active; Activity [8]: Active; Activity [9]: Active; Activity [10]: Active; inhibition [11]: Active; Activity [12]: Active; Activity [13]: Active; inhibition [14]: Active; Activity [15]: Active
CNC1=C([N+](=O)[O-])C(c2ccccc2Cl)Nc2ncnn21 (configuration not stated) | > 100 µM | > 100 µM | 63.3 µM | > 100 µM | 

From ChEMBL document CHEMBL4627341, “Synthesis and evaluation of anti-tumor activity of novel triazolo[1,5-a] pyrimidine on cancer cells by induction of cellular apoptosis and inhibition of epithelial-to-mesenchymal transition process” (Bioorg Med Chem Lett, 2020)
